In patent US6339045B1, “N-(unsubstituted or substituted)-4-substituted-6-(unsubstituted or substituted)phenoxy-2-pyridinecarboxamides or thiocarboxamides, processes for producing the same, and herbicides” (Kureha Kagaku Kogyo Kabushiki Kaisha, priority 1995, dated 2002):

Assays:
Experiment in all cases: Herbicidal effect by foliage and soil treatment
Assay type in all cases: in vivo
Settings in all cases: 10 g ai/10a, evaluated after 14 days
[1] = system: sicklepod (Cassia obtusifolia)
Text: (§1) Experiment for Determination of Herbicidal Effect by Foliate and Soil Treatment Seeds of redroot pigweed (Amaranthus retroflexus), common blackjack (Bidens pilosa), kediock (Sinapis arvensis), common chickweed (Stellaria media), sicklepod (Cassia obtusifolia), black nightshade (Solanum nigrum), velvetleaf (Abutilon theophrasti), field bindweed (Convolvulus arvensis), wild chamomile (Matricaria chamomilla), cleavers (Galium aparine) and […] (Veronica hederaefolia), were uniformly sowed over a horticultural granular soil (produced by KUREHA CHEMICAL INDUSTRY, CO., LTD.; the same soil was used hereinafter) filled in a planter. The planter was placed in a greenhouse (maintained at 19 to 25° C.) to sprout these plants. Two seedlings of each sprouted plant were transplanted to a 10 cm-diameter pot filled with the horticultural granular soil and cultivated in the greenhouse (maintained at 19 to 25° C.) until reaching a cotyledonal to bifoliate period suited to the foliage and soil treatment. […] Next, additional amounts of Tween 20 and water were added to the obtained solution or suspension to produce a test solution. The plants prepared in the above (1) were placed within a frame having a predetermined inside area, and uniformly sprayed with the test solution using a sprayer such that the amount of each compound applied was controlled to a predetermined level. The plants sprayed with the test solution were placed again in the greenhouse (maintained at 19 to 25° C.) and cultivated therein. After 14 days, the degree of growth of each plant cultivated in the treated region was compared with that of plant cultivated in non-treated region, and evaluated according to the following ratings. The herbicidal activity of each test compound was represented by these ratings

[2] = system: wild chamomile (Matricaria chamomilla)
Text: as §1

[3] = system: redroot pigweed (Amaranthus retroflexus)
Text: as §1

[4] = system: black nightshade (Solanum nigrum)
Text: as §1

[5] = system: field bindweed (Convolvulus arvensis)
Text: as §1

[6] = system: common chickweed (Stellaria media)
Text: as §1

[7] = system: kediock (Sinapis arvensis)
Text: as §1

[8] = system: cleavers (Galium aparine)
Text: as §1

[9] = system: common blackjack (Bidens pilosa)
Text: as §1

[10] = system: velvetleaf (Abutilon theophrasti)
Text: as §1

[11] = system: ivyleafspeedwell (Veronica hederaefolia)
Text: as §1

SMILES	herbicidal activity rating, CO (Cassia obtusifolia) [1]	herbicidal activity rating, MC (Matricaria chamomilla) [2]	herbicidal activity rating, AR (Amaranthus retroflexus) [3]	herbicidal activity rating, SN (Solanum nigrum) [4]	herbicidal activity rating, CA (Convolvulus arvensis) [5]	herbicidal activity rating, SM (Stellaria media) [6]	herbicidal activity rating, SA (Sinapis arvensis) [7]	herbicidal activity rating, GA (Galium aparine) [8]	herbicidal activity rating, BP (Bidens pilosa) [9]	herbicidal activity rating, AT (Abutilon theophrasti) [10]	herbicidal activity rating, VH (Veronica hederaefolia) [11]
CNN(C)C(=O)c1cc(OC)cc(Oc2cccc(C(F)(F)F)c2)n1 [Compound I-202, N-methyl-N-methylamino-4-methoxy-6-{3-(trifluoromethyl)phenoxy}-2-pyridine carboxamide]	5 (percentage of weeds killed was not less than 80%)	3 (percentage of weeds killed was not less than 40% and less than 60%)	5 (percentage of weeds killed was not less than 80%)	5 (percentage of weeds killed was not less than 80%)	4 (percentage of weeds killed was not less than 60% and less than 80%)	5 (percentage of weeds killed was not less than 80%)	5 (percentage of weeds killed was not less than 80%)	5 (percentage of weeds killed was not less than 80%)	4 (percentage of weeds killed was not less than 60% and less than 80%)	4 (percentage of weeds killed was not less than 60% and less than 80%)	5 (percentage of weeds killed was not less than 80%)
CCN(CC)C(=O)c1cc(OC)cc(Oc2cccc(C(F)(F)F)c2)n1 [Compound I-200, N,N-diethyl-4-methoxy-6-{3-(trifluoromethyl)phenoxy}-2-pyridine carboxamide]	5 (percentage of weeds killed was not less than 80%)	4 (percentage of weeds killed was not less than 60% and less than 80%)	5 (percentage of weeds killed was not less than 80%)	5 (percentage of weeds killed was not less than 80%)	5 (percentage of weeds killed was not less than 80%)	5 (percentage of weeds killed was not less than 80%)	5 (percentage of weeds killed was not less than 80%)	5 (percentage of weeds killed was not less than 80%)	2 (percentage of weeds killed was not less than 20% and less than 40%)	5 (percentage of weeds killed was not less than 80%)	5 (percentage of weeds killed was not less than 80%)
COc1cc(Oc2cccc(C(F)(F)F)c2)nc(C(=O)NCCO)c1 [Compound I-89]	5 (percentage of weeds killed was not less than 80%)	3 (percentage of weeds killed was not less than 40% and less than 60%)	5 (percentage of weeds killed was not less than 80%)	5 (percentage of weeds killed was not less than 80%)	4 (percentage of weeds killed was not less than 60% and less than 80%)	5 (percentage of weeds killed was not less than 80%)	5 (percentage of weeds killed was not less than 80%)	5 (percentage of weeds killed was not less than 80%)	5 (percentage of weeds killed was not less than 80%)	4 (percentage of weeds killed was not less than 60% and less than 80%)	5 (percentage of weeds killed was not less than 80%)
COc1cc(Oc2cccc(C(F)(F)F)c2)nc(C(=O)NCCSC)c1 [Compound I-62]	5 (percentage of weeds killed was not less than 80%)	4 (percentage of weeds killed was not less than 60% and less than 80%)	5 (percentage of weeds killed was not less than 80%)	5 (percentage of weeds killed was not less than 80%)	4 (percentage of weeds killed was not less than 60% and less than 80%)	5 (percentage of weeds killed was not less than 80%)	5 (percentage of weeds killed was not less than 80%)	5 (percentage of weeds killed was not less than 80%)	4 (percentage of weeds killed was not less than 60% and less than 80%)	3 (percentage of weeds killed was not less than 40% and less than 60%)	5 (percentage of weeds killed was not less than 80%)
CCCNC(=O)c1cc(OC)cc(Oc2cccc(C(F)(F)F)c2)n1 [Compound I-33, N-(n-propyl)-4-methoxy-6-{3-(trifluoromethyl)phenoxy}-2-pyridine carboxamide]	5 (percentage of weeds killed was not less than 80%)	5 (percentage of weeds killed was not less than 80%)	5 (percentage of weeds killed was not less than 80%)	5 (percentage of weeds killed was not less than 80%)	4 (percentage of weeds killed was not less than 60% and less than 80%)	5 (percentage of weeds killed was not less than 80%)	5 (percentage of weeds killed was not less than 80%)	5 (percentage of weeds killed was not less than 80%)	5 (percentage of weeds killed was not less than 80%)	5 (percentage of weeds killed was not less than 80%)	5 (percentage of weeds killed was not less than 80%)
